Test: Boiling temperature at pressure P
Details: Liquid, Ebulliometric method (Recirculating still)

ClCCCl [1,2-dichloroethane]
Details	Boiling temperature at pressure P [°C]
60.01 kPa	67.30
66.68 kPa	70.70
73.35 kPa	73.40
80.02 kPa	76.30
86.69 kPa	78.90
101.35 kPa	84.10
